According to US9212196B2, “Hypophosphorous acid derivatives having antihyperalgic activity and biological applications thereof” (UNIVERSITE PARIS DESCARTES, priority 2011, dated 2015):
“Also recorded” adds a separate entry of the source.

Experiments:
[1] = tested on: model of inflammation induced by carrageenan in C57BL6 mice; test: Von Frey test in carrageenan inflammation model in mice; assay type: in vivo, mouse
Procedure: FIG. 2 illustrates the effect of intrathecal administration of derivative 2 on the vocalization threshold to paw pressure in the carrageenan inflammatory pain model (effect of derivative 2 (0.5, 1, 5, 10 μg/rat, i.t.) on time-course of vocalization threshold to paw pressure). Morphine (10 μg/rat, i.t.) is used as a positive control.
Adult male Sprague-Dawley rats weighting 175-200 g were purchased from Charles River. C57/BL6 mice were from Elevage Janvier, and homozygous mGlu4 (−/−) and wild-type (+/+) littermates were generated from crosses between heterozygous animals. Animals were housed under controlled environmental conditions (22° C.; 55% humidity) and kept under a 12/12 h light/dark cycle, with food and water ad libitum for a week prior to start the experiments in order to acclimatize. Animal care and experiments were carried out in accordance with the Committee for Research and Ethical Issues of the IASP (Zimmermann M., 1983; Goudet C., 2008).
Mechanical allodynia and hyperalgesia were assessed using the von Frey hair filaments of 3 different bending forces (0.07 g, 0.6 g, 1.4 g). For each filament, 5 stimuli were applied with an interval of 3-5 s.

mGlu8 = mGlu8 (Homo sapiens (Human), UniProt O00222); test: Agonist activity on mGlu8 in transfected HEK293 cells, intracellular calcium release (Fluo4-AM); assay type: cell-based
Sequence of mGlu8 (O00222 34-908): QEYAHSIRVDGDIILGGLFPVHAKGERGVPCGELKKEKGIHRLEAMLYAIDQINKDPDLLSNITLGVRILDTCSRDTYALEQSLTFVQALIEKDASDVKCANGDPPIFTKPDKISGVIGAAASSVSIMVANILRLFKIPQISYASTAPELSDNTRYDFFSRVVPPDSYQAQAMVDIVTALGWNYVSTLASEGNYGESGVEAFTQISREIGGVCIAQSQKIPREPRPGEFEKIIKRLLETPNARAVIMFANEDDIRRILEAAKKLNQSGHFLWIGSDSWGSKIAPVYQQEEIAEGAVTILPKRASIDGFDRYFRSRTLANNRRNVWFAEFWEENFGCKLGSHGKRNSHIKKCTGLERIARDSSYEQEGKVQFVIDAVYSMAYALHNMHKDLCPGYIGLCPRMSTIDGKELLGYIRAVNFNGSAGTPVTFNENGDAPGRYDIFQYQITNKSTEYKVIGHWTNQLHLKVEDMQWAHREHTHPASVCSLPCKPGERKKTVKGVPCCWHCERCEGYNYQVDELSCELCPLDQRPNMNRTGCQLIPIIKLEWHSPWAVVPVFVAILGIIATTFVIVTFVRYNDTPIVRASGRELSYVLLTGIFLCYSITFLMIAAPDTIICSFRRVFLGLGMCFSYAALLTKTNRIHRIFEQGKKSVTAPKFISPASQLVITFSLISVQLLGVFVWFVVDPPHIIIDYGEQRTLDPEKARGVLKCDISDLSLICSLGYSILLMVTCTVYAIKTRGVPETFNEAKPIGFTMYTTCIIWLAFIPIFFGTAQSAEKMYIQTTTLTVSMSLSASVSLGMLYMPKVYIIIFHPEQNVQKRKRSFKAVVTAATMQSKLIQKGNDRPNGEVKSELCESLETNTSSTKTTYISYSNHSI
Source text: The EC50's are compared to those of L-AP4 (L-2-amino-4-phosphonobutyric acid) used as a reference.
Metabotropic glutamate receptors were transiently transfected in HEK293 cells by electroporation as described elsewhere (Brabet I. et al., 1998) and plated in 96-well microplates. The high affinity glutamate transporter EAAC1 was co-transfected with the receptor in order to avoid any influence of glutamate released by the cells in the assay medium. In the experiments carried out by the inventors, Group-III mGluRs were co-transfected with a chimeric G-protein which couples the activation of the receptor to the phospholipase-C (PLC) pathway. Thus receptor activation induces production of inositol phosphate (IP) which in turn induces intracellular Ca^2+ release. Receptor activity was then determined by measurement of the IP production or Ca release as already described (Goudet C. et al., PNAS 2004). For intracellular calcium measurements, cells expressing mGluRs were loaded with Ca2+-sensitive fluorescent dye Fluo-4 AM (Invitrogen, Cergy-Pontoise, France) dissolved in Hanks' balanced salt solution (HBSS, Invitrogen, Cergy-Pontoise, France) containing 2.5 mM Probenicid (Sigma-Aldrich Chemie, Saint-Quentin Fallavier, France) for 1 h at 37° C., then washed and incubated with HBSS containing probenecid. A drug plate was prepared with the various concentrations of agonist to be tested and drug solution was added in each well after 20 s of recording. Fluorescence signals (excitation 485 nm, emission 525 nm) were measured by using the fluorescence microplate reader Flexstation III (Molecular Devices, Saint-Grégoire, France) at sampling intervals of 1.5 s for 60 s. All points are realized in triplicate.
The dose-response curves were fitted using the GraphPad Prism program and the following equation: y=[(ymax−ymin)/(1+(x/EC50)n)]+ymin where EC50 is the concentration of the compound necessary to obtain the half maximal effect and n is the Hill coefficient.

healthy rats = test: Paw pressure test in healthy rats; assay type: in vivo, rat; details: i.t., FIG. 1
Procedure: After the induction period of the neuropathy or inflammation, various amounts of derivative 2 dissolved in serum have been injected in rats, (from 0.5 to 15 μg/rat, i.t. from 1 to 30 mg/kg, i.p.) on time-course of vocalization threshold to paw pressure. The results obtained on healthy animals are given on FIG. 1. They are expressed by the time course curves of means+/−SEM of vocalization threshold in grams (n=6-8 rats per group) (A) or by the area under the curve (B). Morphine (10 μg/rat, i.t.) is used as a positive control.
The animals were submitted to the paw pressure test previously described by Randall and Selitto (1957). Nociceptive thresholds, expressed in grams (g), were measured with a Ugo Basile analgesimeter (Apelex, tip diameter of the probe: 1 mm, weight: 30 g) by applying an increasing pressure to the right hind paw of rats until a squeak (vocalization threshold) was obtained (cut-off was 750 g except carrageenan treated animals for which the cut-off was 500 g). The treatments were done after the measurement of two consecutive stable vocalization threshold values and their effects were assessed 15, 30, 45, 60, 90, and 120 min after.
Intrathecal injections were performed, under isoflurane anesthesia (4% induction, 2% maintenance), as previously described (Mestre et al., 1994). […]

N[C@@H](CCP(=O)(O)C(O)c1ccc(OCC(=O)O)cc1)C(=O)O (stereo partly drawn) [Derivative 2, [((3S)-3-Amino-3-carboxy)propyl][(4-(carboxymethoxy)phenyl)hydroxymethyl]phosphinic Acid]
antihyperalgesic effect in mice lacking mGluR4 receptor versus wild-type littermates ([1]; 10 μg/mice i.t.): significantly decreased in mice lacking mGluR4 receptor; also recorded: profoundly impaired
mechanical hypersensitivity measured using Von Frey filaments ([1]; C57BL6 mice, i.t.): dose-dependently reduced the mechanical hypersensitivity
mGlu8/4 EC50 ratio (mGlu8; ratio of mGlu8 EC50 to mGlu4 EC50): 256
EC50 (mGlu8; transfected cells, calcium release, read-out: mGlu8 EC50 μM (n)): 29.2 ± 4.2 µM
perception of mechanical acute pain (vocalization threshold to paw pressure) (healthy rats): does not modify the perception of the mechanical acute pain
